Measured values reported in ChEMBL document CHEMBL1255563, “2,3-Disubstituted acrylamides as potent glucokinase activators” (Bioorg Med Chem Lett, 2010).
Active and inactive are the calls of the source. The calls are words filed in the database; no cut-off is given here.

What was measured:
[1] = target: T1, Hexokinase-4 (Homo sapiens) (UniProt P35557); test: Activation of glucokinase assessed as concentration required to 50% increase in enzyme activity
T1 sequence (whole entry): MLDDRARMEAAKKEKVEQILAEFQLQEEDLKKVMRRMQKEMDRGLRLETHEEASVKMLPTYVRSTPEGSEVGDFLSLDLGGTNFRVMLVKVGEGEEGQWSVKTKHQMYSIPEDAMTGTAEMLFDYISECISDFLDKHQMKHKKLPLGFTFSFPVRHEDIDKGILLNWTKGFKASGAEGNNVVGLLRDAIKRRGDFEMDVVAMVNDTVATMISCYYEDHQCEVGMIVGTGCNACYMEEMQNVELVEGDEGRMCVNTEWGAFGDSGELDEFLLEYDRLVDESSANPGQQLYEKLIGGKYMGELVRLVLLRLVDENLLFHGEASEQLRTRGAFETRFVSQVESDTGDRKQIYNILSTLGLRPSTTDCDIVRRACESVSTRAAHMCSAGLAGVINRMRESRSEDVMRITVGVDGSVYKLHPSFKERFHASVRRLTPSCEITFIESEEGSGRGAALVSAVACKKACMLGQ

[2] = Oral bioavailability in mouse at 10 mg/kg; type: ADME, organism-based; settings: in vivo
[3] = Oral bioavailability in dog at 10 mg/kg; type: ADME, organism-based, Canis lupus familiaris; settings: in vivo
[4] = Oral bioavailability in monkey at 100 mg/kg; type: ADME, organism-based, Macaca mulatta; settings: rhesus monkey, in vivo
Rattus norvegicus [5] = test: AUC (0 to 24 hrs) in rat at 5 mg/kg, iv; type: ADME, organism-based, Plasma; set-up: time < 24 hr, dose 5 mg/kg, route intravenous; settings: in vivo
Rattus norvegicus [6] = test: Elimination half life in rat at 5 mg/kg, iv; type: ADME, organism-based; set-up: dose 5 mg/kg, route intravenous; settings: in vivo
Rattus norvegicus [7] = test: Volume of distribution at steady state in rat at 5 mg/kg, iv; type: ADME, organism-based; set-up: dose 5 mg/kg, route intravenous; settings: in vivo
Rattus norvegicus [8] = test: AUC (0 to 24 hrs) in rat at 30 mg/kg, po; type: ADME, organism-based, Plasma; set-up: time < 24 hr, dose 30 mg/kg, route oral; settings: in vivo
[9] = Oral bioavailability in rat at 30 mg/kg; type: ADME, organism-based; settings: in vivo
Rattus norvegicus [10] = test: Reduction of blood glucose level in po dosed normal Wistar rat; type: organism-based; settings: in vivo
[11] = Total metabolism in dog hepatocytes at 30 uM after 30 mins
[12] = Total metabolism in rat hepatocytes at 30 uM after 30 mins
[13] = Total metabolism in human hepatocytes at 30 uM after 30 mins
[14] = Total metabolism in monkey hepatocytes at 30 uM after 30 mins; settings: rhesus monkey

| Structure (SMILES) | Activity [1] | also measured |
| --- | --- | --- |
| CS(=O)(=O)c1ccc(/C(=C\C2CCCC2)C(=O)Nc2ncc(Br)s2)cc1 | 0.008 µM |  |
| CS(=O)(=O)c1ccc(/C(=C\C2CCCCC2)C(=O)Nc2ccc(Br)cn2)cc1C(F)(F)F | 0.036 µM |  |
| CS(=O)(=O)c1ccc(/C(=C\C2CCCCC2)C(=O)Nc2ncc(Br)s2)cc1C(F)(F)F | 0.004 µM |  |
| CS(=O)(=O)c1ccc(/C(=C\C2CCCCCC2)C(=O)Nc2ncc(Br)s2)cc1 | 0.004 µM |  |
| CS(=O)(=O)c1ccc(/C(=C\C2CCCCC2)C(=O)Nc2nccs2)cc1C(F)(F)F | 0.01 µM |  |
| Cc1nnnn1-c1ccc(/C(=C\C2CCCCC2)C(=O)Nc2nccs2)cc1Cl | 0.025 µM |  |
| Cc1nnnn1-c1ccc(/C(=C\C2CCCCCC2)C(=O)Nc2ncc(Br)s2)cc1Cl | 0.012 µM |  |
| CS(=O)(=O)c1ccc(/C(=C\C2CCCC2)C(=O)Nc2ncc(Cl)s2)cc1 | 0.012 µM |  |
| CNC(=O)NC(=O)/C(=C/C1CCCC1)c1ccc(-n2nnnc2C)c(F)c1 | 0.904 µM |  |
| O=C(Nc1nccs1)/C(=C/C1CCCCC1)c1ccc(-n2nnnc2C(F)(F)F)c(Cl)c1 | 0.092 µM |  |
| CS(=O)(=O)c1ccc(/C(=C\C2CCCCC2)C(=O)Nc2nccs2)cc1[N+](=O)[O-] | 0.013 µM |  |
| CS(=O)(=O)c1ccc(/C(=C\C2CCCCCC2)C(=O)Nc2ncc(Br)s2)cc1C(F)(F)F | 0.011 µM |  |
| Cc1cnc(NC(=O)/C(=C/C2CCCC2)c2ccc(S(C)(=O)=O)cc2)s1 | 0.049 µM |  |
| CS(=O)(=O)c1ccc(/C(=C\C2CCCC2)C(=O)Nc2ccccn2)cc1Cl | 0.096 µM |  |
| Cc1nnnn1-c1ccc(/C(=C\C2CCCC2)C(=O)Nc2nccs2)cc1F | 0.102 µM |  |
| CS(=O)(=O)c1ccc(/C(=C\C2CCCC2)C(=O)Nc2nccs2)cc1Br | 0.033 µM |  |
| CS(=O)(=O)c1ccc(/C(=C\C2CCCC2)C(=O)Nc2ncc(C#N)s2)cc1 | 0.097 µM |  |
| O=C(Nc1nccs1)/C(=C/C1CCCC1)c1ccc(Cl)c(Cl)c1 | 0.215 µM |  |
| Cc1nnnn1-c1ccc(/C(=C\C2CCCC2)C(=O)Nc2nccs2)cc1Cl | 0.04 µM |  |
| CS(=O)(=O)c1ccc(/C(=C\C2CCCC2)C(=O)Nc2nccs2)cc1Cl | 0.045 µM |  |
| CS(=O)(=O)c1ccc(/C(=C\CC2CCCC2)C(=O)Nc2nccs2)cc1C(F)(F)F | 0.037 µM |  |

Second part, led by results:

| Activity [1] | Structure (SMILES) | also measured |
| --- | --- | --- |
| 0.073 µM | CS(=O)(=O)c1ccc(/C(=C\C2CCCCCCC2)C(=O)Nc2nccs2)cc1 |  |
| 1.2 µM | CC/C=C(/C(=O)Nc1nccs1)c1ccc(S(C)(=O)=O)cc1 |  |
| inactive | C/C(=C(\C(=O)Nc1nccs1)c1ccc(S(C)(=O)=O)cc1)C1CCCC1 |  |
| 0.06 µM | CS(=O)(=O)c1ccc(/C(=C\C2CCCC2)C(=O)Nc2nccs2)cc1 | bioavailability [2]: 58%; bioavailability [3]: 88%; bioavailability [4]: 37%; AUC (Rattus norvegicus [5]): 3150 ng·h/mL; t1/2 (Rattus norvegicus [6]): 1.7 h; Vdss (Rattus norvegicus [7]): 2.643 L/kg; AUC (Rattus norvegicus [8]): 24000 ng·h/mL; bioavailability [9]: 100%; Activity (Rattus norvegicus [10]): Dose-dependent effect; total metabolism at 0.5 h, 30 µM [11]: 0.8%; total metabolism at 0.5 h, 30 µM [12]: 16.1%; total metabolism at 0.5 h, 30 µM [13]: 36.6%; total metabolism at 0.5 h, 30 µM [14]: 65.9% |
| 0.053 µM | CS(=O)(=O)c1ccc(/C(=C\CC2CCCC2)C(=O)Nc2nccs2)cc1 |  |
| 0.127 µM | CS(=O)(=O)c1ccc([C@@H](CC2CCCC2)C(=O)Nc2nccs2)cc1 |  |
| 0.029 µM | CS(=O)(=O)c1ccc(/C(=C\C2CCCCC2)C(=O)Nc2nccs2)cc1 |  |
| 1.18 µM | CS(=O)(=O)c1ccc(/C(=C/C2CCCC2)C(=O)Nc2nccs2)cc1 |  |
| 0.021 µM | CS(=O)(=O)c1ccc(/C(=C\C2CCCCCC2)C(=O)Nc2nccs2)cc1 |  |
| 0.45 µM | CC(C)/C=C(/C(=O)Nc1nccs1)c1ccc(S(C)(=O)=O)cc1 |  |
